Data: patent US6399782B1, “Benzimidazole inhibitors of fructose 1,6-bisphosphatase” (Metabasis Therapeutics, Inc., priority 1997, dated 2002)
Blank lines part the entries; values can stand above or below the compound they belong to.

Key:
[1] = system: rat hepatocytes; assay: Inhibition of gluconeogenesis in rat hepatocytes; format: cell-based
Procedure: Hepatocytes were prepared from overnight fasted Sprague-Dawley rats (250-300 g) according to the procedure of Berry and Friend (Berry, M. N., Friend, D. S., 1969, J. Cell. Biol. 43, 506-520) as modified by Groen (Groen, A. K., Sips, H. J., Vervoorn, R. C., Tager, J. M., 1982, Eur. J. Biochem. 122, 87-93). Hepatocytes (75 mg wet weight/mL) were incubated in 1 ml Krebs-bicarbonate buffer containing 10 mM Lactate, 1 mM pyruvate, 1 mg/mL BSA, and test compound concentrations from 1 to 500 μM. Incubations were carried out in a 95% oxygen, 5% carbon dioxide atmosphere in closed, 50-mL Falcon tubes submerged in a rapidly shaking water bath (37° C.). After 1 hour, an aliquot (0.25 mL) was removed, transferred to an Eppendorf tube and centrifuged. 50 μL of supernatant was then assayed for glucose content using a Sigma Glucose Oxidase kit as per the manufacturer's instructions.

[2] = target: T1, human liver FBPase (Homo sapiens, UniProt P09467); assay: Inhibition of human liver FBPase; format: biochemical; conditions: for inhibition of human liver FBPase activity (FIG. 2): result in words
T1 construct: made in house; host or cells: E. coli BL21
T1 sequence (P09467 2-338 limits assumed): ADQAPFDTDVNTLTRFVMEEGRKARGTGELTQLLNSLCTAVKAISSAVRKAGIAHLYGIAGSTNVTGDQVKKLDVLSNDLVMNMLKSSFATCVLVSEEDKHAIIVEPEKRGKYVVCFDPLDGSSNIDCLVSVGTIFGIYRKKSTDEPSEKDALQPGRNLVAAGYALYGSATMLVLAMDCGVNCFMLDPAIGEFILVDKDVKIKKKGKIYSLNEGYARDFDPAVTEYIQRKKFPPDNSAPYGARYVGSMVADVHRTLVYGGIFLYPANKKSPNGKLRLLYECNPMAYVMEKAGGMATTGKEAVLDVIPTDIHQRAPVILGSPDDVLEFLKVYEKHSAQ

[3] = system: fasted Sprague Dawley rats; assay: Blood glucose lowering in fasted rats; format: in vivo, rat; conditions: 20 mg/kg intraperitoneally, 18 hours fasted Sprague Dawley rats, one hour post injection
Procedure: Sprague Dawley rats (250-300 g) were fasted for 18 hours and then dosed intraperitoneally with 20 mg/kg of compounds 12.53, 12.61, or 12.64. The vehicle used for drug administration was 50 mM sodium bicarbonate. Blood samples were obtained from the tail vein of conscious animals just prior to injection and one hour post injection. Blood glucose was measured using a HemoCue Inc. glucose analyzer according to the instructions of the manufacturer.

[4] = Estimation of the oral bioavailability of prodrugs of phosphonic acids; format: in vivo; conditions: rat; for % Oral bioavailability: prodrug by oral gavage approximately 20 or 40 mg/kg parent equivalents, urinary recovery of parent vs i.v. parent
Procedure: Prodrugs were dissolved in 10% ethanol/90% polyethylene glycol (mw 400) and administered by oral gavage at doses of approximately 20 or 40 mg/kg parent compound equivalents to 6-hour fasted, Sprague Dawley rats (220-240 g). The rats were subsequently placed in metabolic cages and urine was collected for 24 hours. The quantity of parent compound excreted into urine was determined by HPLC analysis. An ODS column eluted with a gradient from potassium phosphate buffer, pH 5.5 to acetonitrile was employed for these measurements. Detection was at 310-325 nm. […] Parent compounds were typically dissolved in dimethyl sulfoxide, and administered via the tail vein in animals that were briefly anesthetized with halothane.

[5] = target: T2, hlFBPase (Homo sapiens, UniProt P09467); assay: AMP site binding (displacement of radiolabeled AMP)
T2 construct: made in house; host or cells: E. coli BL21
T2 sequence (P09467 2-338 limits assumed): T1 sequence (P09467 2-338 limits assumed)
Procedure: To determine whether compounds bind to the allosteric AMP binding site of hlFBPase, the enzyme was incubated with radiolabeled AMP in the presence of a range of test compound concentrations. The reaction mixtures consisted of […] ^3H-AMP (54 mCi/mmol) and […] test compound in 25 mM Tris-HCl, pH 7.4, 100 mM KCl and 1 mM MgCl2. 1.45 mg of homogeneous FBPase (±1 nmole) was added last. After a 1 minute incubation, AMP bound to FBPase was separated from unbound AMP by means of a centrifugal ultrafiltration unit (“Ultrafree-MC”, Millipore) used according to the instructions of the manufacturer. The radioactivity in aliquots (100 μL) of the upper compartment of the unit (the retentate, which contrains enzyme and label) and the lower compartment (the filtrate, which contains unbound label) were quantified using a Beckman liquid scintillation counter. The amount of AMP bound to the enzyme was estimated by comparing the counts in the filtrate (the unbound label) to the total counts in the retentate.

[6] = target: T3, mouse liver FBPase (Mus musculus, UniProt Q9QXD6); assay: Inhibition of mouse liver FBPase; format: biochemical; conditions: partially purified mouse liver fraction
T3 construct: This partially purified fraction was used for enzyme assays; from tissue; host or cells: mouse liver, 45-75% ammonium sulfate fraction
T3 sequence (Q9QXD6 2-338 limits assumed): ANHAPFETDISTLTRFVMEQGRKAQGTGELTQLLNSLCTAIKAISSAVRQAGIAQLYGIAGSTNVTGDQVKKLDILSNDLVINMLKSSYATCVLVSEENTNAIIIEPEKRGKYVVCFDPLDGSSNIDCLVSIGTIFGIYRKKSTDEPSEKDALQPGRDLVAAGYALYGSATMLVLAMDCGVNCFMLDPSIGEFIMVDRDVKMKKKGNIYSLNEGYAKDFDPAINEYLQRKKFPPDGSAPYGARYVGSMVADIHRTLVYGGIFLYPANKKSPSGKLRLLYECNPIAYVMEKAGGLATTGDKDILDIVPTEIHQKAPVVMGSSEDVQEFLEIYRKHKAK
Procedure: Enzymatic activity was measured spectrophotometrically in reactions that coupled the formation of product (fructose 6-phosphate) to the reduction of dimethylthiazoldiphenyltetrazolium bromide (MTT) via NADP and phenazine methosulfate (PMS), using phosphoglucose isomerase and glucose 6-phosphate dehydrogenase as the coupling enzymes. Reaction mixtures (200 μl) were made up in 96-well microtitre plates, and consisted of 50 mM Tris-HCl, pH 7.4, 100 mM KCl, 5 mM EGTA, 2 mM MgCl2, 0.2 mM NADP, 1 mg/ml BSA, 1 mM MTT, 0.6 mM PMS, 1 unit/mL phosphoglucose isomerase, 2 units/mL glucose 6-phosphate dehydrogenase, and 0.150 mM substrate (fructose 1,6-bisphosphate). Inhibitor concentrations were varied from 0.01 μM to 10 μM.
Mouse liver FBPase was obtained by homogenizing freshly isolated mouse liver in 100 mM Tris-HCl buffer, pH 7.4, containing 1 mM EGTA, and 10% glycerol. […] This fraction was redissolved in the homogenization buffer and desalted on a PD-10 gel filtration column (Biorad) eluted with same. This partially purified fraction was used for enzyme assays. Both rat liver and mouse liver FBPase were assayed as described for human liver FBPase.

Compound: CC(C)Cn1c(-c2ccc(P3(=O)OCC(CO)CO3)o2)nc2ccc(Cl)cc21 (stereo not shown) [Compound 31.13, 6-Chloro-1-isobutyl-2-{5-[2-(hydroxymethyl)-propan-1,3-yl]phosphono-2-furanyl}benzimidazole]
% Oral bioavailability [4]: 10.9%

Compound: CC(C)C(=O)OCOP(=O)(OCOC(=O)C(C)C)c1ccc(-c2nc3c(N)ncnc3n2CC(C)(C)C)o1 [Compound A]
oral bioavailability (calculated 6.2/76.8) ([4]; oral approximately 20 mg/kg): approximately 8%
% of oral dose recovered in urine ([4]; oral approximately 20 mg/kg, parent compound in 24 hour urine): 6.2%

Compound: NC(=O)c1ncn([C@@H]2O[C@H](COP(=O)(O)O)[C@@H](O)[C@H]2O)c1N [ZMP, 5-aminoimidazole-4-carboxamide riboside monophosphate, reference compound]
IC50 ([2]; values in text, read-out: hlFBPase IC50): 12 µM
EC50 ([5]; displacement of 3H-AMP from hlFBPase, read-out: ED50 for AMP displacement): 250 µM
displacement of AMP from human liver FBPase (FIG. 3) ([5]; result in words): displaced AMP from human liver FBPase in a dose dependent manner

Compound: CC(C)(C)Cn1c(-c2ccc(P(=O)(O)O)o2)nc2c(N)ncnc21 [Compound B]
% of intravenous dose recovered in urine ([4]; intravenous approximately 10 mg/kg, 24 hour urine): 76.8%

Compound: COC(=O)OCC1COP(=O)(c2ccc(-c3nc4ccc(Cl)cc4n3CC(C)C)o2)OC1 (stereo not shown) [Compound 31.15, 6-Chloro-1-isobutyl-2-{5-[2-(methoxycarbonyloxymethyl)-propan-1,3-yl]phosphono-2-furanyl}benzimidazole]
% Oral bioavailability [4]: 14.1%

The next lines start with results.

melting point: 230 to 235 °C
Compound: CC(C)Cn1c(-c2ccc(P(=O)(O)O)o2)nc2c(N)c(F)ccc21 [Compound 12.53, 4-Amino-5-fluoro-1-isobutyl-2-(2-phosphono-5-furanyl)benzimidazole]
IC50 ([1]; Hepatocyte, glucose production from lactate/pyruvate, isolated rat hepatocytes, 1 hour): 2.4 µM
inhibition of glucose production in rat hepatocytes (FIG. 4) ([1]; result in words): inhibit glucose production in vitro in rat hepatocytes
inhibition of human liver FBPase activity (FIG. 2) [2]: inhibit human liver FBPase activity in vitro in a dose dependent manner
blood glucose lowering [3]: 55±14%

IC50 [6]: 0.78 µM
melting point: 220 to 225 °C
Compound: CCc1ccc2c(nc(-c3ccc(P(=O)(O)O)o3)n2CC(C)C)c1N [Compound 12.52, 4-Amino-5-ethyl-1-isobutyl-2-(2-phosphono-5-furanyl)benzimidazole]
inhibition of human liver FBPase activity (FIG. 2) [2]: inhibit human liver FBPase activity in vitro in a dose dependent manner
